Assay results as given in patent US11760773B2, “Small molecule drug conjugates of gemcitabine monophosphate” (MaveriX Oncology, Inc., priority 2018, dated 2023).
Structures can show the parent of a compound that is named as a salt. Where two headings read alike, the source gives them in different places.

Assays:
[1] = test system: UT-SCC-5; assay: Tumor cell proliferation (alamarBlue) cytotoxicity assay, UT-SCC-5; type: cell-based, human
Procedure: (§1) A tumor cell proliferation assay was used to determine cytotoxicity IC50 values for the phosphate prodrug Compounds 1-9, the parent non-phosphorylated SMDC parent compounds, and the effector (gemcitabine) across eight primary early-passage human head and neck squamous cell carcinoma cell lines including UT-SCC-5, UT-SCC-8, UT-SCC-9, UT-SCC-10, UT-SCC-14, UT-SCC-16A, UT-SCC-16B, and UT-SCC-24A.
(§2) UTSCC cells were seeded at 4000 cells/100 I/well on 96-well black clear-bottom tissue culture plate. Cells were incubated at 37° C. and 5% CO2 overnight to allow them to recover and re-attach. The next day cells were treated with the test compound (0-100 μM) for 72 hours. After treatment, cell proliferation was measured by Fluorescent quantitation of alamarBlue reagent. The alamarBlue assay incorporates a fluorometric/colorimetric growth indicator based on detection of metabolic activity. Specifically, resazurin, the active ingredient of alamarBlue reagent, is blue in color and virtually non-fluorescent. Upon entering cells, resazurin is reduced to resorufin, a compound that is red in color and highly fluorescent.
(§3) Continued cell growth maintains a reduced environment, therefore increasing the overall fluorescence and color of the media surrounding cells. The fluorescence intensity of alamarBlue reagent was directly proportional to cell number. To perform the alamarBlue assay, 10 I of alamarBlue reagent was added to each well and the plate was incubated at 37° C. for an additional 2 hour. Fluorescence intensity was measured at an excitation of 530 nm and an emission of 590 nm using a BioTek Synergy™ 2 microplate reader.
(§4) Cell proliferation assays in triplicate were performed at each concentration. The fluorescent intensity data were analyzed using the computer software, Graphpad Prism. In the absence of the compound, the fluorescent intensity (Ft) in each data set was defined as 100%. In the absence of cells, the fluorescent intensity (Fb) in each data set was defined as 0%. The percent cell in the presence of each compound was calculated according to the following equation: % cell=(F−Fb)/(Ft−Fb), where F=the fluorescent intensity in the presence of the compound, Fb=the fluorescent intensity in the absence of cells, and Ft=the fluorescent intensity in the absence of the compound. The values of % cell versus a series of compound concentrations were then plotted using non-linear regression analysis of Sigmoidal dose-response curve generated with the equation Y=B+(T−B)/1+10^((Log EC50-X)×Hill Slope) where Y=percent cell, B=minimum percent cell, T=maximum percent cell, X=logarithm of compound and Hill Slope=slope factor or Hill coefficient. The IC50 value was determined by the concentration causing a half-maximal percent activity.

[2] = test system: UT-SCC-8; assay: Tumor cell proliferation (alamarBlue) cytotoxicity assay, UT-SCC-8; type: cell-based, human
Procedure: as §1, §2, §3, §4

[3] = test system: UT-SCC-9; assay: Tumor cell proliferation (alamarBlue) cytotoxicity assay, UT-SCC-9; type: cell-based, human
Procedure: as §1, §2, §3, §4

[4] = test system: UT-SCC-10; assay: Tumor cell proliferation (alamarBlue) cytotoxicity assay, UT-SCC-10; type: cell-based, human
Procedure: as §1, §2, §3, §4

[5] = test system: UT-SCC-14; assay: Tumor cell proliferation (alamarBlue) cytotoxicity assay, UT-SCC-14; type: cell-based, human
Procedure: as §1, §2, §3, §4

[6] = test system: UT-SCC-16A; assay: Tumor cell proliferation (alamarBlue) cytotoxicity assay, UT-SCC-16A; type: cell-based, human
Procedure: as §1, §2, §3, §4

[7] = test system: UT-SCC-16B; assay: Tumor cell proliferation (alamarBlue) cytotoxicity assay, UT-SCC-16B; type: cell-based, human
Procedure: as §1, §2, §3, §4

[8] = test system: UT-SCC-24A; assay: Tumor cell proliferation (alamarBlue) cytotoxicity assay, UT-SCC-24A; type: cell-based, human
Procedure: as §1, §2, §3, §4

[9] = test system: primary head and neck squamous cell carcinoma cell lines; assay: Cytotoxicity, average over the eight UT-SCC cell lines; type: cell-based, human
Procedure: as §1
UTSCC cells were seeded at 4000 cells/100 I/well on 96-well black clear-bottom tissue culture plate. Cells were incubated at 37° C. and 5% CO2 overnight to allow them to recover and re-attach. The next day cells were treated with the test compound (0-100 μM) for 72 hours. After treatment, cell proliferation was measured by Fluorescent quantitation of alamarBlue reagent. […]
as §3, with “To perform the alamarBlue assay, 10 I of alamarBlue reagent was added to each well and the plate was incubated at 37° C. for an additional 2 hour.” left out
Cell proliferation assays in triplicate were performed at each concentration. The fluorescent intensity data were analyzed using the computer software, Graphpad Prism. […] The IC50 value was determined by the concentration causing a half-maximal percent activity.

[10] = Solubility / formulation; type: physicochemical; settings: water; read-out: soluble in water
[11] = Comparative plasma PK of Compound 1 versus Int 1-4 in male CD-1 mice (study b); type: in vivo; settings: male, CD-1, mouse, iv; for AUC(0-inf): read-out: AUC0-inf; for MRT inf: read-out: MRT0-inf; for MRT last: read-out: MRT0-last; for Vd: read-out: Vdss
Procedure: Objectives: to compare the plasma pharmacokinetics and stability of Compound 1 with its non-phosphorylated SMDC analog (Int 1-4) and in plasma following a single intravenous infusion administration of Compound 1 at 11.6 mg/kg and 23.2 mg/kg with Int 1-4 (formulation F1 & F2) at 10.0 mg/kg in male CD-1 mice
PK measurements: compare PK parameters C0, CL, Vdss, Cmax, tmax, t1/2, AUC(0-t), AUC(0-inf), MRT(0-t), MRT(0-inf) for Compound 1 and Int 1-4

[12] = Compound 1 and gemcitabine plasma PK in the male cynomolgus monkey (study h); type: in vivo
Procedure: Objectives: to compare the plasma pharmacokinetics and stability of the Compound 1 with Int 1-4 and in plasma following a single intravenous infusion administration of Compound 1 at 5 mg/kg and 10 mg/kg with equimolar gemcitabine at 2.28 mg/kg in male cynomolgous monkeys.
PK measurements: compare PK parameters C0, CL, Vdss, Cmax, tmax, t1/2, AUC(0-t), AUC(0-inf), MRT(0-t), MRT(0-inf) for Compound 1 and Int 1-4 with gemcitabine.

[13] = Mouse plasma stability (Compound 1); type: in vitro ADME
[14] = Homo sapiens, 72 hours treatment
[15] = 11.6 mg/kg, after iv Compound 1 11.6 mg/kg
[16] = 23.2 mg/kg, after iv Compound 1 23.2 mg/kg
[17] = plasma, after iv Compound 1 5 mg/kg

COc1cc(OC)c2oc(COC(=O)Nc3ccn([C@@H]4O[C@H](COP(=O)(O)O)[C@@H](O)C4(F)F)c(=O)n3)cc2c1 [Compound 1, ((2R,3R,5R)-5-(4-((((5,7-dimethoxybenzofuran-2-yl)methoxy)carbonyl)-amino)-2-oxopyrimidin-1(2H)-yl)-4,4-difluoro-3-hydroxytetrahydrofuran-2-yl)methyl hydrogen phosphate triethyl ammonium salt]
IC50 ([1]; Homo sapiens, UT-SCC-5, 72 hours treatment): 0.024 µM
Cytotoxicity IC50 ratio Compound 1/Int 1-4 ([1]; UT-SCC-5): 1.5
Cytotoxicity IC50 ratio Compound 1/gemcitabine ([1]; UT-SCC-5): 2.7
IC50 ([2]; Homo sapiens, UT-SCC-8, 72 hours treatment): 0.023 µM
Cytotoxicity IC50 ratio Compound 1/Int 1-4 ([2]; UT-SCC-8): 0.7
Cytotoxicity IC50 ratio Compound 1/gemcitabine ([2]; UT-SCC-8): 1.0
IC50 ([3]; Homo sapiens, UT-SCC-9, 72 hours treatment): 0.053 µM
Cytotoxicity IC50 ratio Compound 1/Int 1-4 ([3]; UT-SCC-9): 1.4
Cytotoxicity IC50 ratio Compound 1/gemcitabine ([3]; UT-SCC-9): 1.5
IC50 ([4]; Homo sapiens, UT-SCC-10, 72 hours treatment): 0.014 µM
Cytotoxicity IC50 ratio Compound 1/Int 1-4 ([4]; UT-SCC-10): 1.6
Cytotoxicity IC50 ratio Compound 1/gemcitabine ([4]; UT-SCC-10): 1.6
IC50 ([5]; Homo sapiens, UT-SCC-14, 72 hours treatment): 0.013 µM
Cytotoxicity IC50 ratio Compound 1/Int 1-4 ([5]; UT-SCC-14): 1.0
Cytotoxicity IC50 ratio Compound 1/gemcitabine ([5]; UT-SCC-14): 2.2
Cytotoxicity IC50 ratio Compound 1/Int 1-4 [6]: 0.5
Cytotoxicity IC50 ratio Compound 1/gemcitabine [6]: 1.2
IC50 [6, 14]: 0.073 µM
Cytotoxicity IC50 ratio Compound 1/Int 1-4 [7]: 0.8
Cytotoxicity IC50 ratio Compound 1/gemcitabine [7]: 1.3
IC50 [7, 14]: 0.13 µM
Cytotoxicity IC50 ratio Compound 1/Int 1-4 [8]: 0.9
Cytotoxicity IC50 ratio Compound 1/gemcitabine [8]: 1.3
IC50 [8, 14]: 0.018 µM
average ratio of cytotoxicity IC50 values Compound 1/Int 1-4 [9]: ~1
average ratio of cytotoxicity IC50 values Compound 1/gemcitabine [9]: ~1.6
solubility [10]: > 300 mg/mL
AUC(0-t) [11, 15]: 202 ng·h/mL
C0 [11, 15]: 21900 ng/mL
clearance [11, 15]: 1970 mL/min/kg
half-life [11, 15]: 52.9 s
AUC(0-inf) [11, 15]: 202 ng·h/mL
MRT inf [11, 15]: 39.2 s
MRT last [11, 15]: 38.9 s
Vd [11, 15]: 1.41 L/kg
AUC(0-t) [11, 16]: 103 ng·h/mL
C0 [11, 16]: 2330 ng/mL
clearance [11, 16]: 5190 mL/min/kg
half-life [11, 16]: 131 s
AUC(0-inf) [11, 16]: 105 ng·h/mL
MRT inf [11, 16]: 164 s
MRT last [11, 16]: 153 s
Vd [11, 16]: 12 L/kg
VDss fold lower than Int 1-4 [12]: 10 fold
AUC(0-t) [12, 17]: 1830 ng·h/mL
C0 [12, 17]: 139000 ng/mL
clearance [12, 17]: 46.5 mL/min/kg
half-life [12, 17]: 36 s
MRT inf ([12]; plasma, after iv Compound 1 5 mg/kg, read-out: MRT0-inf): 36 s
MRT last ([12]; plasma, after iv Compound 1 5 mg/kg, read-out: MRT0-last): 36 s
Vd ([12]; plasma, after iv Compound 1 5 mg/kg, read-out: Vdss): 0.0357 L/kg
stability in mouse plasma [13]: stable
Slope Mean ± SE ([13]; 3 μM, 37° C.): 0.00413 ± 0.000752
